Measurements as given in patent publication US6376209B2, “Increasing the FVII sensitivity of a thromboplastin reagent” (Dade Behring Marburg GmbH, priority 1997, dated 2002).
Like-named read-outs stand apart in the source and are kept apart here.

Columns and labels:
Experiment in all cases: Quick's thromboplastin time (PT), Schnitger & Gross
Type in all cases: biochemical
FVII-deficient plasma = conditions: for Coagulation time FVII-MF / FVII-sens. FVII-MP/100%: 0.75 sec, incubated 37° C., 90 min; for Coagulation time FVII-MP / FVII sens.: FVII-MP/100%: 0.5 sec
Protocol: (§1) Quick's thromboplastin time (PT) was then determined using a Schnitger & Gross as follows:
(§2) Heat reagents and tubes to 37° C.;
(§3) Introduce […] of control plasma N or FVII-deficient plasma into the tubes;
(§4) Incubate for 1 min in the thermoblock;
(§5) Add 200 μl of thromboplastin and at the same time start the measuring operation; shake the tube briefly and place it in the measuring position of the Schnitger & Gross, and insert the electrode holder up to the limit stop;
(§6) Read off the coagulation time.
(§7) Quick's thromboplastin time (PT) is then determined using a Schnitger & Gross as follows:
(§8) Introduce 100 μl of plasma into the tubes;
(§9) Add 200 μl of thromboplastin and at the same time start the measuring operation;
(§10) shake the tube briefly, place it in the measuring position of the Schnitger & Gross, and insert the electrode holder up to the limit stop;

Standard human plasma = tested on: Standard human plasma
Protocol: as §1, §2, §3, §4, §5, §6, §7, §8, §9, §10

control plasma Patho II = tested on: control plasma Patho II
Protocol: as §7, §2, §8, §4, §9, §10, §6
The spread was calculated from the ratio of the coagulation times for the dilution of the StHPl and the StHPl, and the FVII sensitivity was calculated from the ratio of the coagulation times for FVII-MP and STHPL.
Standard human plasma, the control plasma Patho II and an FVII-deficient plasma were used as samples. The reagents were stored at 4° C. and 37° C. and the coagulation time was repeated after 7 and 14 days. The spread was calculated from the ratio of the coagulation times of the Patho II and the StHPl, and the FVII sensitivity was calculated from the ratio of the coagulation times for FVII-MP and the STHPL.

[1] = 0.00003% added to Thromborel S heated 120° C.
[2] = 0.0003% added to Thromborel S heated 120° C.
[3] = 0.003% added to Thromborel S heated 120° C.
[4] = 0.03% added to Thromborel S heated 120° C.
[5] = 0.3% added to Thromborel S heated 120° C.
[6] = 0.5 mg/l added to Thromborel S heated 95° C.
[7] = 1.5 mM added to Thromborel S heated 95° C.
[8] = 1.5 mM added to Thromborel S heated 95° C., 0.5 sec

Q: What does the source list for `OO` [H2O2]?
A: Coagulation time FVII-MF (FVII-deficient plasma; [1]): 132 s; FVII-sens. FVII-MP/100% (FVII-deficient plasma; [1]): 11.1; Coagulation time FVII-MF (FVII-deficient plasma; [2]): 133 s; FVII-sens. FVII-MP/100% (FVII-deficient plasma; [2]): 11.4; Coagulation time FVII-MF (FVII-deficient plasma; [3]): 139 s; FVII-sens. FVII-MP/100% (FVII-deficient plasma; [3]): 12.2; Coagulation time FVII-MF (FVII-deficient plasma; [4]): 143 s; FVII-sens. FVII-MP/100% (FVII-deficient plasma; [4]): 12.4; Coagulation time FVII-MF (FVII-deficient plasma; [5]): 156 s; FVII-sens. FVII-MP/100% (FVII-deficient plasma; [5]): 10.4; Coagulation time 100% (Standard human plasma; 0.00003% added to Thromborel S heated 120° C., 0.75 sec, incubated 37° C., 90 min): 11.9 s; Coagulation time 100% (Standard human plasma; 0.0003% added to Thromborel S heated 120° C., 0.75 sec, incubated 37° C., 90 min): 11.7 s; Coagulation time 100% (Standard human plasma; 0.003% added to Thromborel S heated 120° C., 0.75 sec, incubated 37° C., 90 min): 11.4 s; Coagulation time 100% (Standard human plasma; 0.03% added to Thromborel S heated 120° C., 0.75 sec, incubated 37° C., 90 min): 11.5 s; Coagulation time 100% (Standard human plasma; 0.3% added to Thromborel S heated 120° C., 0.75 sec, incubated 37° C., 90 min): 15 s

Q: `CC(=O)N[C@@H](CC(C)C)C(=O)N[C@@H](CC(C)C)C(=O)N[C@H](C=O)CCCNC(=N)N` [Leupeptin] was tested. Which “Coagulation time FVII-MP” value (FVII-deficient plasma; [6]) did it give?
A: 121 s

Q: And the “FVII sens.: FVII-MP/100%” value (FVII-deficient plasma; [6])?
A: 11.4

Q: And the “Coagulation time Patho II” value (control plasma Patho II)?
A: 22.5 s

Q: And the “Spread: Patho II/100%” value (control plasma Patho II)?
A: 2.1

Q: What about the “Coagulation time 100%” value (Standard human plasma) of the same molecule?
A: 10.6 s

Q: Which “Coagulation time FVII-MP” value (FVII-deficient plasma; [7]) does the source give for `O=S(=O)(F)Cc1ccccc1` [PMSF, phenylmethylsulfonyl fluoride] here?
A: 259 s

Q: What about the “FVII sens.: FVII-MP/100%” value (FVII-deficient plasma; [7]) of the same molecule?
A: 24.2

Q: What about the “Coagulation time Patho II” value (control plasma Patho II; [8]) of the same molecule?
A: 21.9 s

Q: And the “Spread: Patho II/100%” value (control plasma Patho II; [8])?
A: 2.0

Q: What about the “Coagulation time 100%” value (Standard human plasma; [8]) of the same molecule?
A: 10.7 s
